# Reference: PubChem BioAssay (NCI)
# “And” between values parts separate entries of the source, which are not always exact repeats. Identical values can stand only once.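 In this assay, cells in 96-well plates receive the compound at five concentrations for 48 hours. Endpoints are linearly interpolated between the surrounding concentrations. GI50 marks 50% less growth. TGI is the concentration that stops growth completely.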
# Tests used:
# Assay in all cases: NCI tumour cell line growth inhibition, 48 h
# [1] = tested on: A498 renal
# [2] = tested on: NCI-H460 lung
# [3] = tested on: OVCAR-8 ovarian
# [4] = tested on: RPMI-8226 leukemia
# [5] = tested on: SK-OV-3 ovarian
# [6] = tested on: SNB-19 CNS
# [7] = tested on: OVCAR-5 ovarian
# [8] = tested on: SF-268 CNS
# [9] = tested on: SK-MEL-2 melanoma
# [10] = tested on: DU-145 prostate
SMILES,TGI [1] [µM],TGI [2] [µM],TGI [3] [µM],TGI [4] [µM],TGI [5],TGI [6],TGI [7] [µM],TGI [8],TGI [9] [µM],GI50 [1] [µM],GI50 [10] [µM],TGI [10] [µM],GI50 [2] [µM],GI50 [3] [µM],GI50 [4] [µM],GI50 [8] [µM],GI50 [9] [µM],GI50 [5] [µM],GI50 [6] [µM],GI50 [7] [µM]
COc1ccc2c(c1OCC(=O)O)C(=O)C(CCC(=O)O)CC2 (stereo not given),> 100,> 100,> 100,> 100,> 100 µM,> 100 µM,,,,,,,,,,,,,,
Cc1cc2c(=O)c3ccccc3[nH]c2c(C(N)=O)c1C,,> 100,> 100,> 100,> 100 µM,> 100 µM,> 100,> 100 µM,> 100,,,,,,,,,,,
O=C(Nc1cccc(C(F)(F)F)c1)c1ccc(NC2=C(Cl)C(=O)N(Cc3ccc(Cl)cc3Cl)C2=O)cc1,25.9,31,19.7,5.08,> 100 µM,> 100 µM,,35.5 µM,25.6,6.51,11.8,30.2,8.38,3.42,2.29,11,10.9,60.4,22.8,
O=C(NC[C@H](O)CN1CCc2ccccc2C1)c1cc(NC2COC2)ncn1,,21.1,> 100,43.5,> 100 µM,98 µM,> 100,97.5 µM,51.7,,18.3,> 100,3.98,20.8,4.22,14.9,15.9,77.2,11.9,36.8
CCC(C)(C)c1ccc(OCCCCNC(=O)c2ccc3ccccc3c2O)c(C(C)(C)CC)c1,> 100,> 100,> 100,,> 100 µM,> 100 µM,> 100,> 100 µM,62,,,> 100,,,,,,,,
O=C1CCC2(c3ccc(Cl)cc3)Nc3cc(Cl)ccc3N12 (stereo not given),24.6,,20.6,> 100,40.1 µM,42.6 µM,,25.8 µM,23.8,,,,,,,,,,,
CC(C)(/C=C(\C#N)C(=O)N1CCC[C@@H](n2nc(-c3ccc(Oc4ccccc4)cc3F)c3c(N)ncnc32)C1)N1CCN(C2COC2)CC1,6.25,20.8,34.3,33.1,,20.6 µM,24.1,21.8 µM,26.2,1.78,12.3,26.8,6.3,10.8,4.41,5.37,10.1,,8.09,11.3
CCCCCCCCCCCCCCCC(=O)OCCOCCOCCOCc1ccccc1,> 100,> 100,> 100,,,> 100 µM,> 100,> 100 µM,> 100,,,,,,,,,,,
COc1ccc(C(=O)Nc2ccc(O)c(=O)cc2)cc1,,28.7,91.7,> 100,,93.6 µM,> 100,63.4 µM,> 100,,,59,,,,,,,,
COC1C(OC(=S)Nc2ccccc2)c2ccccc2N1C(C)=O (stereo not given),> 100,> 100,> 100,> 100,,> 100 µM,,,> 100,,,,,,,,,,,
CC(C)(C)c1cc(C(P(=O)(O)O)P(=O)(O)O)cc(C(C)(C)C)c1O,> 100,> 100,> 100,> 100,> 100 µM,> 100 µM,> 100,> 100 µM,> 100,,,,,,,,,,,
CCOC(=O)N[C@H]1CCc2cc(OC)c(OC)c(OC)c2-c2ccc(SC)c(=O)cc21,,> 100,> 100,> 100,26.8 µM and > 100 µM,91.7 µM and > 100 µM,> 100,47.2 µM and > 100 µM,,,,,,,,,0.345,< 0.01,< 0.01,< 0.01
CN1CCC(=O)/C(=C/c2ccccc2)C1,33,41.8,51.7,15.7,35.3 µM,30.8 µM,29.3,43.2 µM,42.1,,,,,,,,,,,
CN(C)C1CCN(C(=O)c2ccc(NC(=O)Nc3ccc(-c4nc(N5CCOCC5)c5cccn5n4)cc3)cc2)CC1,,13.6,15.5,1.88,0.252 µM,6.22 µM,16.1,13.9 µM,1.43,,0.0335,12.6,0.0587,0.116,0.275,0.0453,0.0833,0.0377,0.0403,0.0521
O=C1N=C2Sc3ccc4ccccc4c3N2C1=O,,70.2,34,> 100,31.6 µM,45.8 µM,> 100,52.3 µM,71.9,,,,,,,,,,,
CC12CCC(=O)C[C@H]1CCC(OC=O)C2Br (stereo not given in full),> 100,> 100,> 100,> 100,> 100 µM,> 100 µM,> 100,> 100 µM,> 100,,,,,,,,,,,
COC(=O)/C(C#N)=C1\N=NNN1c1ccc(OC)cc1,> 100,> 100,> 100,> 100,> 100 µM,> 100 µM,,,,,,,,,,,,,,
C/C(CC(=O)Nc1ccc(C)c(C)c1)=N\N(c1ccccc1)c1ccccc1,> 100,> 100,> 100,> 100,> 100 µM,> 100 µM,> 100,> 100 µM,> 100,,,,,,,,,,,
CCN(CC)CCNc1nc(N)c(C#N)c(C#N)c1C#N,> 10,> 10,> 10,> 10,> 10 µM,> 10 µM,> 10,> 10 µM,,,,> 10,,,,,,,,
COCC(OC)C(CC=C(C#N)C#N)OC (stereo not given),> 100,,> 100,> 100,> 100 µM,> 100 µM,> 100,> 100 µM,> 100,,,,,,,,,,,
CC1(C)COC(c2cccc3c2C(=O)c2cccc(Cl)c2-3)=N1,> 100,> 100,> 100,> 100,> 100 µM,> 100 µM,> 100,> 100 µM,> 100,,,,,,,,,,,
